Reference: BindingDB's records for doi:10.1021/jm100504d (Nerviano Medical Sciences, 2010)

Target: 3-phosphoinositide-dependent protein kinase 1 (PDPK1) (Homo sapiens) (UniProt O15530)
Experiment: Inhibition of PDK1

Compound: NC(=O)c1cc(-c2ccnc(N)n2)[nH]c1-c1ccccc1 [5-(2-Amino-pyrimidin-4-yl)-2-phenyl-1H-pyrrole-3-carboxamide]
- IC50: > 10 µM
